“Also recorded” adds a separate entry of the source.
Legend:
PAR-2 = target: T1, PAR-2 (Rattus norvegicus, UniProt Q63645); test: Intracellular Ca2+ response of primary neuronal cultures; assay type: cell-based; settings: primary neuronal cultures of adult rat DRGs
T1 construct: assessing the response of primary neuronal cultures to trypsin and AcPep; endogenous in cells; host or cells: primary cultures of adult Sprague-Dawley rat DRG neurons
T1 sequence (Q63645 26-397): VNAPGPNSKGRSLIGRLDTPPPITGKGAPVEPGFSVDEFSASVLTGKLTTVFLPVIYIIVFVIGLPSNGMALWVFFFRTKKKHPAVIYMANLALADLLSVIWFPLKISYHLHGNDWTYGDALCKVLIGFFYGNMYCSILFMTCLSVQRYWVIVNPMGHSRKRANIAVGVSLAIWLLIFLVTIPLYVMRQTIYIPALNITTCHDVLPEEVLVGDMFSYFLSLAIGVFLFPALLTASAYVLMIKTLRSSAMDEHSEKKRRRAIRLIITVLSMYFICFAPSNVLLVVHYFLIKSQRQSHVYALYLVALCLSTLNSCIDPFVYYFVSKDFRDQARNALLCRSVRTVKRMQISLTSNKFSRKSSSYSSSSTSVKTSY
Excerpt: In the results which follow, it is shown that activated proteases can have direct effects on sensory neurons, mediated by specific receptors. PAR-1 and PAR-2 are present in rat DRGs (Young et al. 2000). The presence of one of these receptors, PAR-2, in sensory neurons is first confirmed by finding evidence of mRNA and protein expression in adult rat thoracic DRGs. The functional implications of PAR-2 expression are then examined by assessing the response of primary neuronal cultures to trypsin and AcPep. Both agonists increased intracellular Ca^2+ confirming previously reported findings that a functional PAR 2 receptor is present in adult rat DRGs (Steinhoff et al. 2000). Trypsin stimulates both PAR-1 and PAR-2 and therefore an increase in intracellular Ca^2+ can be caused by activation of the two different receptors. […] Therefore the increased intracellular Ca^2+ response to AcPep reflects specific PAR-2 mediated activation.
Cell Culture. Primary cultures of rat DRG neurons were prepared from male adult Sprague Dawley rats (200-250 gm). Following enzymatic treatment and dissociation, neurons were spun through a percoll cushion (Hofbauer et al. 1998) and were plated at a density of 10,000-20,000 neurons/well of a 48 well tissue culture plate. […]

[1] = tested on: peripheral afferent nerve endings; settings: subcutaneous injection of 500 μg into the rat paw; cited from earlier work
[2] = tested on: cultured adult rat thoracic DRG neurons; test: CGRP release assay in cultured DRG neurons; assay type: cell-based
Procedure: Cell Culture. Primary cultures of rat DRG neurons were prepared from male adult Sprague Dawley rats (200-250 gm). Following enzymatic treatment and dissociation, neurons were spun through a percoll cushion (Hofbauer et al. 1998) and were plated at a density of 10,000-20,000 neurons/well of a 48 well tissue culture plate. Cultures were maintained in DME+10% FCS supplemented with penicillin/streptomycin, 150 μM uridine and 50 μM 5-fluoro-2-deoxyuridine (Nguyen et al. 1999). NGF (murine, recombinant, 2.5S; Promega, Madison, Wis.) was used at 50 ng/ml. Neurons were treated for five days before release experiments or Calcium-imaging studies were performed.
CGRP release assay. Immunoreactive calcitonin gene-related peptide (IR-CGRP) release from DRG cultures was performed as described by Hingtgen et al. (1995). Briefly, neuron cultures were washed with Release Buffer (RB) (25 mM Hepes, pH 7.4, 135 mM NaCl, 3.5 mM KCl, 2.5 mM CaCl2, 1 mM MgCl2, 3.3 mM Glucose, 0.1% BSA, 1 μM phosphoamidon), and were incubated for 10 min at 37° C. in RB plus 0.1% ethanol (Capsaicin vehicle) to measure basal CGRP release. Fresh RB containing the appropriate concentration of activating peptide (AcPep) or control peptide (CoPep) was added for an additional 10 minutes. Peptide treatment was followed by a 10 minute incubation with an appropriate dose of Capsaicin or KCl. IR-CGRP released by neurons was measured by ELISA. Activating peptide and control peptide were prepared by standard solid phase synthesis procedures by the UTMB Core Protein Facility.
CGRP Quantification. CGRP was quantified in a standard sandwich ELISA. In brief, 96-well “U” bottom microtiter ELISA plates (Dynex, Chantilly, Va.) were coated with affinity purified polyclonal rabbit antibody to rat CGRP (Peninsula Labs, Belmont, Calif.) at 3 μg/ml in 0.125M borate buffered saline (pH 8.1) (100 μl/well). The plates were incubated overnight at 37° C. The next day, the plates were washed three times with saline containing 0.05% Tween-20. Purified rat CGRP (Peninsula Labs) was used at a previously standardized concentration range of 25-1 ng/ml in a four-fold dilution to generate a standard curve. An equal volume of the sample was added in duplicate to a seventy-five μl/well of Tween-PBS (pH 7.1) and the plates were incubated for two hours on a shaker at room temperature. The plates were washed 3 times with Tween-PBS and 100 μl/well (0.2 mg/ml; 1:500 dilution) of in-house biotinylated, rabbit anti rat CGRP IgG (Peninsula Labs) was applied and incubated for two hours at room temperature. After three washes 150 μl of 1:1000 diluted streptavidine-horseradish peroxidase conjugate (Zymed, San Fransisco, Calif.) was added to each well and the plates were incubated for 90 min at room temperature. One-hundred-fifty μl/well of the substrate ortho-phenylene diamine dihydrochloride (Sigma Chemicals, St. Louis, Mo.) 0.4 mg/ml in citrate buffer (pH 4.9) was added after plates were washed three more times. Forty μl/100 ml of 30% H2O2 was added fresh to the citrate buffer just before adding to the wells to activate the coloring reaction. The reaction was stopped with 5N H2SO4 (50 μl/well) and the plates were read at 490 nm in an automated ELISA reader (Bio-Tek Instruments, Inc., Winooski, VE). The OD values were plotted against the CGRP standard curve and CGRP immunoreactivity was quantified using the appropriate formula and expressed as nanogram/ml.
Statistics. Release data are presented as the mean± standard error of the mean (SEM) of wells from three separate experiments. To compare the effects of activating peptide and control peptide on subsequent evoked release, an overall test based on the analysis of variance was performed (ANOVA). […] Intraductal injection studies were analyzed using a repeated measure ANOVA and individual means were compared using a Newman-Keuls multiple comparison test. Significance levels were set at p<0.05. […]

Substance: SLIGRL (PEPTIDE (1)..(6) PAR-2 activating peptide; listed as Rattus sp.) [AcPep]
- intracellular Ca2+ (PAR-2): increased
- release of CGRP and Substance P from peripheral afferent nerve endings [1]: results in the release of CGRP and Substance P
- CGRP release induced by Capsaicin (50 nM) ([2]; 10 min pretreatment with peptide 10 μM, then Capsaicin 50 nM for 10 min in presence of peptide, mean of wells, three experiments): 7.3 ng/mL
- CGRP release induced by KCl (70 mM) ([2]; 10 min pretreatment with peptide 10 μM, then KCl 70 mM for 10 min in presence of peptide, mean of wells, three experiments): 2.7 ng/mL
- CGRP release by peptide alone (basal release) ([2]; peptide 10 μM alone, 10 minute incubation): did not significantly increase CGRP release; also recorded: does not induce CGRP release; also recorded: no effect on basal CGRP release
- KCl evoked IR-CGRP release, in words, versus CoPep ([2]; pre-treatment 10 μM for 10 minutes, KCl 70 mM): significantly higher increase; also recorded: significantly enhances
- Capsaicin-evoked CGRP release, in words, versus CoPep ([2]; pretreatment 10 μM for 10 minutes, Capsaicin 50 nM): significant increase; also recorded: significantly enhances
